In ChEMBL document CHEMBL1145358, “2-Phenyl-2,3-dihydro-1H-imidazo[1,2-b]pyrazole derivatives: new potent inhibitors of fMLP-induced neutrophil chemotaxis” (Bioorg Med Chem Lett, 2007):

Key:
[1] = Inhibition of fMLP-OMe-induced chemotaxis in human neutrophils; assay type: functional
fMet-Leu-Phe receptor = molecular target: T1, fMet-Leu-Phe receptor (Homo sapiens, UniProt P21462); experiment: Displacement of [3H]-fMLP from FPR in human neutrophils
T1 sequence (P21462 whole entry): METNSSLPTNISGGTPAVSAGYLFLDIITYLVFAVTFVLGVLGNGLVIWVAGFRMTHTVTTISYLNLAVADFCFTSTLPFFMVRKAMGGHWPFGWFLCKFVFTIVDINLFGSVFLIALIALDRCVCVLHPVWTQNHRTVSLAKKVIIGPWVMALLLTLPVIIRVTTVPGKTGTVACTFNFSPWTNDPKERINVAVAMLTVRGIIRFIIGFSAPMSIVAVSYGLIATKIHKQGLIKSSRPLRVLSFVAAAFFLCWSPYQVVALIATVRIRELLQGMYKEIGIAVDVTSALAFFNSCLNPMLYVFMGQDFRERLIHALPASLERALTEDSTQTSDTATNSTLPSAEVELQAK

IC50 [1] [nM] | Ki (fMet-Leu-Phe receptor) [nM] | SMILES
1.01 | > 10000 | O=C(c1cnn2c1NC(c1ccccc1)C2)N1CCCCCC1 (centres undefined)
29 | > 10000 | c1ccc(C2Cn3nccc3N2)cc1 (centres undefined)
1.16 | > 10000 | O=C(O)c1cnn2c1NC(c1ccccc1)C2 (centres undefined)
300 | > 10000 | O=C(c1cnn2c1NC(c1ccccc1)C2)N1CCOCC1 (centres undefined)
10000 | > 10000 | O=C(NCc1ccccc1)c1cnn2c1NC(c1ccccc1)C2 (centres undefined)
0.48 | > 10000 | O=C(NC1CC1)c1cnn2c1NC(c1ccccc1)C2 (centres undefined)
1.48 | > 10000 | O=C(c1cnn2c1NC(c1ccccc1)C2)N1CCCCC1 (centres undefined)
2400 | > 10000 | CCOC(=O)c1cnn2c1NC(c1ccccc1)C2 (centres undefined)
7.52 | > 10000 | CC(C)(C)NC(=O)c1cnn2c1NC(c1ccccc1)C2 (centres undefined)
3.67 | > 10000 | NC(=O)c1cnn2c1NC(c1ccccc1)C2 (centres undefined)
27 | > 10000 | O=C(c1cnn2c1NC(c1ccccc1)C2)N1CCN(Cc2ccccc2)CC1 (centres undefined)
9000 | > 10000 | O=C(c1cnn2c1NC(c1ccccc1)C2)N1CCCC1 (centres undefined)
